Experimental data from patent US9115122B2, “Non-ATP dependent inhibitors of extracellular signal-regulated kinase (ERK)” (UNIVERSITY OF MARYLAND, BALTIMORE, priority 2012, dated 2015).

What was measured:
Experiment in all cases: Cell proliferation WST-1 assay, single dose (Example 4)
Format in all cases: cell-based
Details in all cases: 100 μM, 48 hours
A375 melanoma cells = system: A375 melanoma cells
Procedure: (§1) In addition, compounds were tested in RPMI-7951 cells, which also contain mutated BRaf and are resistant to BRaf inhibitors due to the overexpression of MAP3K8 (the gene encoding COT/Tp12) that provides an alternative mechanism to indirectly or directly activate ERK proteins. […] For comparison, HeLa cervical carcinoma and Jurkat T-cell leukemia cells, which are p53 defective cancer cell lines but contain no known activating mutations in the ERK pathway, were studied. […] Cell proliferation was evaluated by water soluble tetrazolium-1 (WST-1) assay as previously described. Briefly, cells (˜5000/well) were seeded in 96 well plates, allowed to recover for 16-20 hours, and then treated with the indicated test compound for 48 hours. After incubation, WST-1 reagent was added and absorbance was read at 450 nm with background subtraction taken at 650 nm. Values were normalized to the control (DMSO only treated) cells.

HL-60 leukemic cells = system: HL-60 leukemic cells
Procedure: as §1

[1] = system: HeLa cervical carcinoma cells
Procedure: as §1

[2] = system: Jurkat T-cell leukemia cells
Procedure: as §1

RPMI-7951 melanoma cells = system: RPMI-7951 melanoma cells
Procedure: as §1

SK-MEL-28 melanoma cells = system: SK-MEL-28 melanoma cells
Procedure: as §1

Compound: CCOc1ccc(/C=C2\SC(=O)N(Cc3ccc([N+](=O)[O-])cc3)C2=O)cc1 [Compound 28n, (Z)-5-(4-ethoxybenzylidene)-3-(4-nitrobenzyl)thiazolidine-2,4-dione]
- Cell Viability (% of Vehicle) A375 (A375 melanoma cells): 117 ± 3 % of Vehicle
- Cell Viability (% of Vehicle) HL-60 (HL-60 leukemic cells): 97 ± 23 % of Vehicle
- Cell Viability (% of Vehicle) HeLa [1]: 97 ± 9 % of Vehicle
- Cell Viability (% of Vehicle) Jurkat [2]: 101 ± 9 % of Vehicle
- Cell Viability (% of Vehicle) RPMI-7951 (RPMI-7951 melanoma cells): 119 ± 13 % of Vehicle
- Cell Viability (% of Vehicle) SK-MEL-28 (SK-MEL-28 melanoma cells): 104 ± 3 % of Vehicle

Compound: CCOc1ccc(/C=C2\SC(=O)N(Cc3ccc(C(=O)OC(C)(C)C)cc3)C2=O)cc1 [Compound 28p, (Z)-tert-butyl 4-((5-(4-ethoxybenzylidene)-2,4-dioxothiazolidin-3-yl)methyl)benzoate]
- Cell Viability (% of Vehicle) A375 (A375 melanoma cells): 119 ± 1 % of Vehicle
- Cell Viability (% of Vehicle) HL-60 (HL-60 leukemic cells): 98 ± 24 % of Vehicle
- Cell Viability (% of Vehicle) HeLa [1]: 100 ± 6 % of Vehicle
- Cell Viability (% of Vehicle) Jurkat [2]: 101 ± 2 % of Vehicle
- Cell Viability (% of Vehicle) RPMI-7951 (RPMI-7951 melanoma cells): 122 ± 1 % of Vehicle
- Cell Viability (% of Vehicle) SK-MEL-28 (SK-MEL-28 melanoma cells): 105 ± 3 % of Vehicle

Compound: CCOc1ccc(/C=C2\SC(=O)N(CCO)C2=O)cc1 [Compound 28e, (Z)-5-(4-ethoxybenzylidene)-3-(2-hydroxyethyl)thiazolidine-2,4-dione]
- Cell Viability (% of Vehicle) A375 (A375 melanoma cells): 116 ± 4 % of Vehicle
- Cell Viability (% of Vehicle) HL-60 (HL-60 leukemic cells): 91 ± 19 % of Vehicle
- Cell Viability (% of Vehicle) HeLa [1]: 91 ± 2 % of Vehicle
- Cell Viability (% of Vehicle) Jurkat [2]: 101 ± 4 % of Vehicle
- Cell Viability (% of Vehicle) RPMI-7951 (RPMI-7951 melanoma cells): 137 ± 8 % of Vehicle
- Cell Viability (% of Vehicle) SK-MEL-28 (SK-MEL-28 melanoma cells): 91 ± 1 % of Vehicle

Compound: CCOc1ccc(/C=C2\SC(=O)NC2=O)cc1 [Compound 2, (Z)-5-(4-ethoxybenzylidene)thiazolidine-2,4-dione]
- Cell Viability (% of Vehicle) A375 (A375 melanoma cells): 110 ± 10 % of Vehicle
- Cell Viability (% of Vehicle) HL-60 (HL-60 leukemic cells): 103 ± 16 % of Vehicle
- Cell Viability (% of Vehicle) HeLa [1]: 98 ± 13 % of Vehicle
- Cell Viability (% of Vehicle) Jurkat [2]: 104 ± 4 % of Vehicle
- Cell Viability (% of Vehicle) RPMI-7951 (RPMI-7951 melanoma cells): 144 ± 2 % of Vehicle
- Cell Viability (% of Vehicle) SK-MEL-28 (SK-MEL-28 melanoma cells): 103 ± 1 % of Vehicle

Compound: CCOc1ccc(/C=C2\SC(=O)N(CCNC(=O)OCC(C)C)C2=O)cc1 [Compound 26c, (Z)-isobutyl (2-(5-(4-ethoxybenzylidene)-2,4-dioxothiazolidin-3-yl)ethyl)carbamate]
- Cell Viability (% of Vehicle) A375 (A375 melanoma cells): 102 ± 4 % of Vehicle
- Cell Viability (% of Vehicle) HL-60 (HL-60 leukemic cells): 80 ± 28 % of Vehicle
- Cell Viability (% of Vehicle) HeLa [1]: 95 ± 3 % of Vehicle
- Cell Viability (% of Vehicle) Jurkat [2]: 110 ± 4 % of Vehicle
- Cell Viability (% of Vehicle) RPMI-7951 (RPMI-7951 melanoma cells): 75 ± 12 % of Vehicle
- Cell Viability (% of Vehicle) SK-MEL-28 (SK-MEL-28 melanoma cells): 94 ± 1 % of Vehicle

Compound: CCOc1ccc(/C=C2\SC(=O)N(C(C)CN)C2=O)cc1 (stereo not drawn) [Compound 22c, (Z)-3-(1-aminopropan-2-yl)-5-(4-ethoxybenzylidene)thiazolidine-2,4-dione]
- Cell Viability (% of Vehicle) A375 (A375 melanoma cells): 13 ± 2 % of Vehicle
- Cell Viability (% of Vehicle) HL-60 (HL-60 leukemic cells): 8.1 ± 3 % of Vehicle
- Cell Viability (% of Vehicle) HeLa [1]: 45 ± 7 % of Vehicle
- Cell Viability (% of Vehicle) Jurkat [2]: 54 ± 10 % of Vehicle
- Cell Viability (% of Vehicle) RPMI-7951 (RPMI-7951 melanoma cells): 22 ± 3 % of Vehicle
- Cell Viability (% of Vehicle) SK-MEL-28 (SK-MEL-28 melanoma cells): 28 ± 4 % of Vehicle

Compound: CCOc1ccc(/C=C2\SC(=O)N(CCNCC(C)C)C2=O)cc1 [Compound 23c, (Z)-5-(4-ethoxybenzylidene)-3-(2-(isobutylamino)ethyl)thiazolidine-2,4-dione]
- Cell Viability (% of Vehicle) A375 (A375 melanoma cells): 1.0 ± 0.1 % of Vehicle
- Cell Viability (% of Vehicle) HL-60 (HL-60 leukemic cells): 10 ± 4 % of Vehicle
- Cell Viability (% of Vehicle) HeLa [1]: 3.7 ± 0.4 % of Vehicle
- Cell Viability (% of Vehicle) Jurkat [2]: 2.5 ± 0.1 % of Vehicle
- Cell Viability (% of Vehicle) RPMI-7951 (RPMI-7951 melanoma cells): 1.0 ± 0.1 % of Vehicle
- Cell Viability (% of Vehicle) SK-MEL-28 (SK-MEL-28 melanoma cells): 1.3 ± 0.1 % of Vehicle

Compound: Cc1ccc(/C=C2\SC(=O)N(CCN)C2=O)cc1 [Compound 30d, (Z)-3-(2-aminoethyl)-5-(4-methylbenzylidene)thiazolidine-2,4-dione]
- Cell Viability (% of Vehicle) A375 (A375 melanoma cells): 23 ± 6 % of Vehicle
- Cell Viability (% of Vehicle) HL-60 (HL-60 leukemic cells): 4.8 ± 2 % of Vehicle
- Cell Viability (% of Vehicle) HeLa [1]: 54 ± 3 % of Vehicle
- Cell Viability (% of Vehicle) Jurkat [2]: 71 ± 6 % of Vehicle
- Cell Viability (% of Vehicle) RPMI-7951 (RPMI-7951 melanoma cells): 23 ± 1 % of Vehicle
- Cell Viability (% of Vehicle) SK-MEL-28 (SK-MEL-28 melanoma cells): 31 ± 7 % of Vehicle

Compound: CCOc1ccc(/C=C2\SC(=O)N(CCNC(=O)C(F)(F)F)C2=O)cc1 [Compound 25b, (Z)—N-(2-(5-(4-ethoxybenzylidene)-2,4-dioxothiazolidin-3-yl)ethyl)-2,2,2-trifluoroacetamide]
- Cell Viability (% of Vehicle) A375 (A375 melanoma cells): 118 ± 4 % of Vehicle
- Cell Viability (% of Vehicle) HL-60 (HL-60 leukemic cells): 101 ± 23 % of Vehicle
- Cell Viability (% of Vehicle) HeLa [1]: 98 ± 11 % of Vehicle
- Cell Viability (% of Vehicle) Jurkat [2]: 103 ± 6 % of Vehicle
- Cell Viability (% of Vehicle) RPMI-7951 (RPMI-7951 melanoma cells): 127 ± 3 % of Vehicle
- Cell Viability (% of Vehicle) SK-MEL-28 (SK-MEL-28 melanoma cells): 105 ± 2 % of Vehicle
